Assay results as given in PubChem BioAssay AID623863 (Southern Research Specialized Biocontainment Screening …, 2012).
Activity calls are given as the source filed them. The rule behind the calls is not given here.

target: Genome polyprotein (Dengue virus type 2 (strain 16681-PDK53)) (UniProt P29991); assay: flavivirus RNA guanylyltransferase activity inhibition – biochemical, secondary assay, dose response (AID 623863); settings: Dengue-2 NS5 guanylylation inhibition
Sequence (P29991 whole entry, looked up): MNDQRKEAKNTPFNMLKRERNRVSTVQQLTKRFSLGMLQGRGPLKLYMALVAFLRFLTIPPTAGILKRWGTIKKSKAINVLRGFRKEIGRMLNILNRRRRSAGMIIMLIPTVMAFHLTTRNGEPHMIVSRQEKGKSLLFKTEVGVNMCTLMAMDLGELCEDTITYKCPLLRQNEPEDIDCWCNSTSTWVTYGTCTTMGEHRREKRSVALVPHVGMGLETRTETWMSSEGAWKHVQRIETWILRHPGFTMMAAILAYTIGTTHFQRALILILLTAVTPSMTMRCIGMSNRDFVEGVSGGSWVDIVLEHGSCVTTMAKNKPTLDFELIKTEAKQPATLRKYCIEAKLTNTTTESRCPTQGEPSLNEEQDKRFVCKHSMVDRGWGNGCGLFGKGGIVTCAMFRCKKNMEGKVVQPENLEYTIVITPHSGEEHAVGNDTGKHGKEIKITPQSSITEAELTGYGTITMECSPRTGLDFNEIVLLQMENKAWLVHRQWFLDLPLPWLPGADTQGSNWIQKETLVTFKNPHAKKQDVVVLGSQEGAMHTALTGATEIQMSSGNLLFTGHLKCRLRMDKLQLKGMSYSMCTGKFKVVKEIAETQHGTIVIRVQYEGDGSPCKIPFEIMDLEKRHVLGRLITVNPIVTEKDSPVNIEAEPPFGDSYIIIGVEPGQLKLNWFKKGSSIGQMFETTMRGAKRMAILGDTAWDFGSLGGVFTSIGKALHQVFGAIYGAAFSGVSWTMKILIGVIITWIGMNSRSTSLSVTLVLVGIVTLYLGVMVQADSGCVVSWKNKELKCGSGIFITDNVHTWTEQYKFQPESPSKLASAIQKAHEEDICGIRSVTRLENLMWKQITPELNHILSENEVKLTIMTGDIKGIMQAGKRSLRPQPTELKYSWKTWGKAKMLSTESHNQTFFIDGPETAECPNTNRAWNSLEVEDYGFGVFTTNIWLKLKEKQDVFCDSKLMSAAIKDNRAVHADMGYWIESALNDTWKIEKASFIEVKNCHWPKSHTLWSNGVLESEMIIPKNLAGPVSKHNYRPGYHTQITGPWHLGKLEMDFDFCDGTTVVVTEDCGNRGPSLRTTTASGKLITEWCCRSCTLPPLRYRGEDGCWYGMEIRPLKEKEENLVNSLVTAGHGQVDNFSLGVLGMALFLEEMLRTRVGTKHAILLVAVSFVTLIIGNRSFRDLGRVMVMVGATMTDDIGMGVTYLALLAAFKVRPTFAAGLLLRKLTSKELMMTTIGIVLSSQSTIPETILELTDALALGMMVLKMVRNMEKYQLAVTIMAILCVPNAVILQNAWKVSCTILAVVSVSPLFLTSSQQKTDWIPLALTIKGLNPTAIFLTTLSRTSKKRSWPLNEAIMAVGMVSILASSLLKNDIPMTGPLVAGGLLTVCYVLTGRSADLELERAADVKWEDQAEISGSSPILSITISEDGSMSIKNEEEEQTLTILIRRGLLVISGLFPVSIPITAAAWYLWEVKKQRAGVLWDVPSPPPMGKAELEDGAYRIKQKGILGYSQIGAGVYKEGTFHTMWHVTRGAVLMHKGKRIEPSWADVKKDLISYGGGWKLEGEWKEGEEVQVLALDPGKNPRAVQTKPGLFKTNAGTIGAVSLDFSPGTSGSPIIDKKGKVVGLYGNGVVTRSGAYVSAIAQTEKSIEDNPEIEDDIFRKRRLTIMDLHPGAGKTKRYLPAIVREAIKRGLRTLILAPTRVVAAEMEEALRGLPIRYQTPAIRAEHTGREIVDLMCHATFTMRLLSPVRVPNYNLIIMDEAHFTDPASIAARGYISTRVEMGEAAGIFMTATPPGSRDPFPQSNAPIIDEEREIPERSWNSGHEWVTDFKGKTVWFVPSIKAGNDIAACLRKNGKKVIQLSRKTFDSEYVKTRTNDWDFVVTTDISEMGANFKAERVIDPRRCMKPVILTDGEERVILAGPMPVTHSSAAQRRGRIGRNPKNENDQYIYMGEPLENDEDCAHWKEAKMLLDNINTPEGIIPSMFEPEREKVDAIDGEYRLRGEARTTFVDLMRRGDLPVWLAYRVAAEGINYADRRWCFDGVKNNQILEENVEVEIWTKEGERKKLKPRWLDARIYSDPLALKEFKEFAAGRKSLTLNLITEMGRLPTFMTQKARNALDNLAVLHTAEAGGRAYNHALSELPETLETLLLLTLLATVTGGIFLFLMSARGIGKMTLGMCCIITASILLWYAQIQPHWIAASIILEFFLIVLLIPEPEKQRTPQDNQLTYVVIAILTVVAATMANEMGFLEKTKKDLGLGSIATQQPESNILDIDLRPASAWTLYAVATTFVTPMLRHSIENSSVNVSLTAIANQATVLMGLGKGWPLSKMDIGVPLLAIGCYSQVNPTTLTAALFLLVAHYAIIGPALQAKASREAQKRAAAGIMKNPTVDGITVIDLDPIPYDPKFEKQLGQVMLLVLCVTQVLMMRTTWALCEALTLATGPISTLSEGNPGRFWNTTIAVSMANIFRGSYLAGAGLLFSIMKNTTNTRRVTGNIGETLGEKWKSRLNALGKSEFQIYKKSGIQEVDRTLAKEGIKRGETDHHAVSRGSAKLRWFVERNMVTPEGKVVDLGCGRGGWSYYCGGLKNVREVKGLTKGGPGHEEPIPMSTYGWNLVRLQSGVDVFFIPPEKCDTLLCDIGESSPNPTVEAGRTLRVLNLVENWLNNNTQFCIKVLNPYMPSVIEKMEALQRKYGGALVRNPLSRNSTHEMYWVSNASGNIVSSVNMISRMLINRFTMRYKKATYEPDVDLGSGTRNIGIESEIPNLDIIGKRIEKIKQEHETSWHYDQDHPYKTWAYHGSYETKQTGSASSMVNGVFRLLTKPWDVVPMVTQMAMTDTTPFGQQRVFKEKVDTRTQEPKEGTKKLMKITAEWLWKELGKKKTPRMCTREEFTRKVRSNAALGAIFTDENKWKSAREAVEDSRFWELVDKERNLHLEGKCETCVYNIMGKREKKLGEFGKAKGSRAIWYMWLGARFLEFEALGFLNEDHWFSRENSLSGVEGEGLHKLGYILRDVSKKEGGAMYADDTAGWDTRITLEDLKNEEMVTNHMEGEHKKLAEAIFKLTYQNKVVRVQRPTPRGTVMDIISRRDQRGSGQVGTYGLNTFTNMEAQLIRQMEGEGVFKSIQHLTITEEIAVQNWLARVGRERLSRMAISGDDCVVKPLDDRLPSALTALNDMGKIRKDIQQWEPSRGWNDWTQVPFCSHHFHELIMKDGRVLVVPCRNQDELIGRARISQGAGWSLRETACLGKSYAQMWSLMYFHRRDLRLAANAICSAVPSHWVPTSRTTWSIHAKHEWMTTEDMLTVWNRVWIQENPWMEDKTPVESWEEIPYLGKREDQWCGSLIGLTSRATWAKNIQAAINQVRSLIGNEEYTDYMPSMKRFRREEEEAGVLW

| SMILES | IC50 [µM] |
| --- | --- |
| O=[N+]([O-])c1cccc(S(=O)(=O)Nc2cc(Sc3nc4ccccc4s3)c(O)c3ccccc23)c1 | 18.3 |
| Cn1c(=O)c2[nH]c(-c3ccc(Cl)cc3)c(O)c2n(C)c1=O | 7.51 |
| O=C(O)CSc1cc(NS(=O)(=O)c2ccc(Cl)cc2)c2ccccc2c1O | 7.89 |
| O=S(=O)(Nc1cc(SCc2ccccc2)c(O)c2ccccc12)c1ccc(Cl)cc1 | 4.23 |
| O=S(=O)(Nc1cc(Sc2ccccc2)c(O)c2ccccc12)c1ccc(F)cc1 | 47.9 |
| O=C(O)CSc1cc(NS(=O)(=O)c2ccc(Br)cc2)c2ccccc2c1O | 2.37 |
| Cc1ccc(S(=O)(=O)Nc2cc(Sc3nc(C)cc(C)n3)c(O)c3ccccc23)cc1 | 46 |
| O=C(O)CSc1cc(NS(=O)(=O)c2cccc([N+](=O)[O-])c2)c2ccccc2c1O | 3.33 |
| O=[N+]([O-])c1cccc(S(=O)(=O)Nc2cc(SCc3ccccc3)c(O)c3ccccc23)c1 | 3.03 |

same assay, conditions: Dengue-2 NS5 guanylylation inhibition, at 50 µM (top of the series)

| SMILES | inhibition |
| --- | --- |
| O=S(=O)(Nc1cc(Sc2ncn[nH]2)c(O)c2ccccc12)c1ccc(F)cc1 | inactive |
| Cc1cc(C)c(S(=O)(=O)Nc2cc(SCC(=O)O)c(O)c3ccccc23)c(C)c1 | inactive |
| Cc1cc(F)ccc1S(=O)(=O)Nc1cc(SCC(=O)O)c(O)c2ccccc12 | inactive |
| O=C(O)CSc1cc(NS(=O)(=O)c2ccc(F)cc2)c2ccccc2c1O | inactive |
| Cc1ccc(S(=O)(=O)Nc2cc(SCC(=O)O)c(O)c3ccccc23)cc1 | inactive |
